Active and inactive are the calls of the source. No cut-off for these calls is given here.
target: T1, 2-5A-dependent ribonuclease (Homo sapiens) (UniProt Q05823); experiment: Antagonist activity at human RNase L expressed in Escherichia coli BL21 (DE3) cells assessed as RNA cleavage using Cy5-C11-rUU-C7-BHQ2 as substrate by FRET assay in presence of natural activator pAAAA; assay type: functional
T1 sequence (whole entry): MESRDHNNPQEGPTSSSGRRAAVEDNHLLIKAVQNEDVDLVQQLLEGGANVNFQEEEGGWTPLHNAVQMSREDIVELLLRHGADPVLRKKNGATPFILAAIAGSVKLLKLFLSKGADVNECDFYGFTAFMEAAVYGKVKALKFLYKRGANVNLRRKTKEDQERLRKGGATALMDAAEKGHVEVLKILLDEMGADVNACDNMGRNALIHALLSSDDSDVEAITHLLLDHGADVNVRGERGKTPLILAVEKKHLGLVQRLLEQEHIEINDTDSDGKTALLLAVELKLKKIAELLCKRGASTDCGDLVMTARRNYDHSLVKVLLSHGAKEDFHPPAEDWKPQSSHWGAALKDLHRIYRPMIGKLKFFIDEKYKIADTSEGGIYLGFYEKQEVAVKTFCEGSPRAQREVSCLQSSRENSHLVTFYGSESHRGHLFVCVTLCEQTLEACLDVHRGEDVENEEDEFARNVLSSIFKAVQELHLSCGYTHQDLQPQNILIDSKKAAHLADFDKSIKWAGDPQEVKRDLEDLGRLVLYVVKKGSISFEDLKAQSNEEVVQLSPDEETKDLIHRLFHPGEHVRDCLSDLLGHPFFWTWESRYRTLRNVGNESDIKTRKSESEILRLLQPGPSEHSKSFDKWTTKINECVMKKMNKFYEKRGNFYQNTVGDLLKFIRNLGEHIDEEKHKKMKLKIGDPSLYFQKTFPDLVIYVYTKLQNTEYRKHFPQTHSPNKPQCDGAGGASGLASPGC

SMILES | inhibition
Nc1ncnc2c1ncn2[C@@H]1O[C@H](COP(=O)(O)O[C@H]2[C@H](O)[C@@H](COCP(=O)(O)O[C@@H]3[C@H](O)[C@@H](COP(=O)(O)O[C@H]4[C@H](O)[C@@H](COCP(=O)(O)O)O[C@H]4n4cnc5c(N)ncnc54)O[C@H]3n3cnc4c(N)ncnc43)O[C@H]2n2cnc3c(N)ncnc32)[C@@H](O)[C@H]1O | inactive
Nc1ncnc2c1ncn2[C@@H]1O[C@H](COCP(=O)(O)O[C@@H]2[C@H](O)[C@@H](COCP(=O)(O)O[C@@H]3[C@H](O)[C@@H](COCP(=O)(O)O[C@@H]4[C@H](O)[C@@H](COP(=O)(O)O)O[C@H]4n4cnc5c(N)ncnc54)O[C@H]3n3cnc4c(N)ncnc43)O[C@H]2n2cnc3c(N)ncnc32)[C@@H](O)[C@H]1O | inactive
Nc1ncnc2c1ncn2[C@@H]1O[C@H](COCP(=O)(O)O[C@@H]2[C@H](O)[C@@H](COP(=O)(O)O[C@@H]3[C@H](O)[C@@H](COP(=O)(O)O[C@@H]4[C@H](O)[C@@H](COCP(=O)(O)O)O[C@H]4n4cnc5c(N)ncnc54)O[C@H]3n3cnc4c(N)ncnc43)O[C@H]2n2cnc3c(N)ncnc32)[C@@H](O)[C@H]1O | inactive
Nc1ncnc2c1ncn2[C@@H]1O[C@H](COP(=O)(O)CO[C@@H]2[C@@H](O)[C@@H](COP(=O)(O)CO[C@@H]3[C@@H](O)[C@@H](COP(=O)(O)O[C@@H]4[C@H](O)[C@@H](COP(=O)(O)O)O[C@H]4n4cnc5c(N)ncnc54)O[C@H]3n3cnc4c(N)ncnc43)O[C@H]2n2cnc3c(N)ncnc32)[C@@H](O)[C@H]1O | inactive
Nc1ncnc2c1ncn2[C@@H]1O[C@H](COP(=O)(O)CO[C@H]2[C@H](O)[C@@H](COP(=O)(O)O[C@@H]3[C@H](O)[C@@H](COP(=O)(O)CO[C@H]4[C@H](O)[C@@H](COP(=O)(O)O)O[C@H]4n4cnc5c(N)ncnc54)O[C@H]3n3cnc4c(N)ncnc43)O[C@H]2n2cnc3c(N)ncnc32)[C@@H](O)[C@H]1O | inactive
Nc1ncnc2c1ncn2[C@@H]1O[C@H](COP(=O)(O)O[C@@H]2[C@H](O)[C@@H](COP(=O)(O)O[C@@H]3[C@H](O)[C@@H](COCP(=O)(O)O[C@@H]4[C@H](O)[C@@H](COCP(=O)(O)O)O[C@H]4n4cnc5c(N)ncnc54)O[C@H]3n3cnc4c(N)ncnc43)O[C@H]2n2cnc3c(N)ncnc32)[C@@H](O)[C@H]1O | inactive
Nc1ncnc2c1ncn2[C@@H]1O[C@H](COCP(=O)(O)O[C@H]2[C@H](O)[C@@H](COCP(=O)(O)O[C@H]3[C@H](O)[C@@H](COCP(=O)(O)O[C@H]4[C@H](O)[C@@H](COCP(=O)(O)O)O[C@H]4n4cnc5c(N)ncnc54)O[C@H]3n3cnc4c(N)ncnc43)O[C@H]2n2cnc3c(N)ncnc32)[C@@H](O)[C@@H]1O | inactive
Nc1ncnc2c1ncn2[C@@H]1O[C@H](COCP(=O)(O)O[C@@H]2[C@H](O)[C@@H](COCP(=O)(O)O[C@@H]3[C@H](O)[C@@H](COCP(=O)(O)O[C@@H]4[C@H](O)[C@@H](COCP(=O)(O)O)O[C@H]4n4cnc5c(N)ncnc54)O[C@H]3n3cnc4c(N)ncnc43)O[C@H]2n2cnc3c(N)ncnc32)[C@@H](O)[C@H]1O | inactive
Nc1ncnc2c1ncn2[C@@H]1O[C@H](COP(=O)(O)CO[C@@H]2[C@H](O)[C@@H](COP(=O)(O)CO[C@@H]3[C@H](O)[C@@H](COP(=O)(O)CO[C@@H]4[C@H](O)[C@@H](COP(=O)(O)O)O[C@H]4n4cnc5c(N)ncnc54)O[C@H]3n3cnc4c(N)ncnc43)O[C@H]2n2cnc3c(N)ncnc32)[C@@H](O)[C@H]1O | inactive
Nc1ncnc2c1ncn2[C@@H]1O[C@H](COP(=O)(O)CO[C@H]2[C@H](O)[C@@H](COP(=O)(O)CO[C@H]3[C@H](O)[C@@H](COP(=O)(O)CO[C@H]4[C@H](O)[C@@H](COP(=O)(O)O)O[C@H]4n4cnc5c(N)ncnc54)O[C@H]3n3cnc4c(N)ncnc43)O[C@H]2n2cnc3c(N)ncnc32)[C@@H](O)[C@H]1O | inactive
Nc1ncnc2c1ncn2[C@@H]1O[C@H](COP(=O)(O)CO[C@@H]2[C@@H](O)[C@@H](COP(=O)(O)O[C@@H]3[C@H](O)[C@@H](COP(=O)(O)CO[C@@H]4[C@@H](O)[C@@H](COP(=O)(O)O)O[C@H]4n4cnc5c(N)ncnc54)O[C@H]3n3cnc4c(N)ncnc43)O[C@H]2n2cnc3c(N)ncnc32)[C@@H](O)[C@H]1O | inactive

Other lines, results leading:

inhibition | SMILES
inactive | Nc1ncnc2c1ncn2[C@@H]1O[C@H](COCP(=O)(O)O[C@@H]2[C@H](O)[C@@H](COP(=O)(O)O[C@@H]3[C@H](O)[C@@H](COCP(=O)(O)O[C@@H]4[C@H](O)[C@@H](COCP(=O)(O)O)O[C@H]4n4cnc5c(N)ncnc54)O[C@H]3n3cnc4c(N)ncnc43)O[C@H]2n2cnc3c(N)ncnc32)[C@@H](O)[C@H]1O
inactive | Nc1ncnc2c1ncn2[C@@H]1O[C@H](COCP(=O)(O)O[C@@H]2[C@H](O)[C@@H](COP(=O)(O)O[C@H]3[C@H](O)[C@@H](COCP(=O)(O)O[C@H]4[C@H](O)[C@@H](COCP(=O)(O)O)O[C@H]4n4cnc5c(N)ncnc54)O[C@H]3n3cnc4c(N)ncnc43)O[C@H]2n2cnc3c(N)ncnc32)[C@@H](O)[C@@H]1O
inactive | Nc1ncnc2c1ncn2[C@@H]1O[C@H](COCP(=O)(O)O[C@@H]2[C@@H](O)[C@@H](COCP(=O)(O)O[C@@H]3[C@@H](O)[C@@H](COCP(=O)(O)O[C@@H]4[C@H](O)[C@@H](COP(=O)(O)O)O[C@H]4n4cnc5c(N)ncnc54)O[C@H]3n3cnc4c(N)ncnc43)O[C@H]2n2cnc3c(N)ncnc32)[C@H](O)[C@H]1O
inactive | Nc1ncnc2c1ncn2[C@@H]1O[C@H](COP(=O)(O)O[C@@H]2[C@@H](O)[C@@H](COCP(=O)(O)O[C@@H]3[C@@H](O)[C@@H](COCP(=O)(O)O[C@@H]4[C@@H](O)[C@@H](COCP(=O)(O)O)O[C@H]4n4cnc5c(N)ncnc54)O[C@H]3n3cnc4c(N)ncnc43)O[C@H]2n2cnc3c(N)ncnc32)[C@@H](O)[C@H]1O
inactive | Nc1ncnc2c1ncn2[C@@H]1O[C@H](COCP(=O)(O)O[C@@H]2[C@@H](O)[C@@H](COCP(=O)(O)O[C@@H]3[C@H](O)[C@@H](COP(=O)(O)O[C@@H]4[C@@H](O)[C@@H](COCP(=O)(O)O)O[C@H]4n4cnc5c(N)ncnc54)O[C@H]3n3cnc4c(N)ncnc43)O[C@H]2n2cnc3c(N)ncnc32)[C@H](O)[C@H]1O
inactive | Nc1ncnc2c1ncn2[C@@H]1O[C@H](COCP(=O)(O)O[C@H]2[C@H](O)[C@@H](COCP(=O)(O)O[C@@H]3[C@H](O)[C@@H](COP(=O)(O)O[C@@H]4[C@H](O)[C@@H](COP(=O)(O)O)O[C@H]4n4cnc5c(N)ncnc54)O[C@H]3n3cnc4c(N)ncnc43)O[C@H]2n2cnc3c(N)ncnc32)[C@@H](O)[C@@H]1O
inactive | Nc1ncnc2c1ncn2[C@@H]1O[C@H](COP(=O)(O)O[C@H]2[C@H](O)[C@@H](COCP(=O)(O)O[C@H]3[C@H](O)[C@@H](COCP(=O)(O)O[C@@H]4[C@H](O)[C@@H](COP(=O)(O)O)O[C@H]4n4cnc5c(N)ncnc54)O[C@H]3n3cnc4c(N)ncnc43)O[C@H]2n2cnc3c(N)ncnc32)[C@@H](O)[C@H]1O
inactive | Nc1ncnc2c1ncn2[C@@H]1O[C@H](COCP(=O)(O)O[C@@H]2[C@H](O)[C@@H](COP(=O)(O)O[C@H]3[C@H](O)[C@@H](COCP(=O)(O)O[C@@H]4[C@H](O)[C@@H](COP(=O)(O)O)O[C@H]4n4cnc5c(N)ncnc54)O[C@H]3n3cnc4c(N)ncnc43)O[C@H]2n2cnc3c(N)ncnc32)[C@@H](O)[C@@H]1O

Reference: ChEMBL document CHEMBL2057064, “Activation of human RNase L by 2'- and 5'-O-methylphosphonate-modified oligoadenylates” (Bioorg Med Chem Lett, 2012)
